Laboratory results reported in PMC6968775, “Assessment of contribution of BCRP to intestinal absorption of various drugs using portal‐systemic blood concentration difference model in mice” (Pharmacology Research & Perspectives, 2020).
Where “and” joins values, the source holds several entries; their conditions need not be identical. Equal values may be shown once. Where a name gives a salt, the structure may show the parent alone.

Assays:
BCRP [1] = experiment: Human AQBCRP estimated from the clinical data; type: in vivo
P‐gp [2] = system: P‐gp
P‐gp [3] = conditions: Caco‐2 permeability study; unpublished data; ref Fujita et al, manuscript in preparation; cited from earlier work
[4] = Blood/plasma concentration ratio (R b) in fresh whole blood; type: in vitro ADME, FVB mice; conditions: fresh whole blood, FVB mouse whole blood, 37°C
Procedure: Similarly, the model compounds were added to plasma, and reference blood samples were obtained according to the same procedure. These concentrations of drugs in each sample were analyzed using HPLC (C B and C P, respectively). R b value was calculated by dividing C B by C P.

[5] = Pharmacokinetics after iv and oral administration, P‐S difference method, wild‐type mice; type: in vivo; conditions: for half-life / AUC(0-inf) / Cmax / Tmax: 1 mg/kg
Procedure: (§1) Male Mdr1a/1b(−/−) and Bcrp(−/−) mice, and WT mice of the same genetic background (FVB) were obtained from Taconic Farms (Germantown, NY, USA). […] Food and water were available ad libitum. All experiments were carried out in accordance with the principles and procedures outlined in the National Institutes of Health Guide for the Care and Use of Laboratory.
(§2) All the mice were fasted overnight with free access to tap water. In the intravenous administration studies, model compounds were administered via the tail vein at doses of 1 mg/kg (n = 3). Following administration, blood samples were collected from the abdominal vein of the anesthetized mice at 0.083, 0.17, 0.5, 1, 2, 4, and 8 hours. […] Following administration, blood samples were taken from the portal and abdominal veins of the anesthetized mice at 0.083, 0.17, 0.5, 1, 2, 4, and 8 hours. The plasma samples were separated by centrifugation at 14 000g for 10 minutes at 4°C and stored at −30°C until analysis.
(§3) After organic layer was evaporated at 60°C, the resultant residues were dissolved in a mobile phase. For the determination of topotecan and sulfasalazine, plasma samples were mixed with acetonitrile, centrifuged at 750 g for 10 minutes at 4°C, and the supernatants were collected. After the evaporation of the supernatants, the residues were dissolved in a mobile phase, and acidified with phosphoric acid for topotecan. All drugs were analyzed by HPLC system (Shimadzu LC‐10AS pump, Shimadzu SIL‐10A autosampler) equipped with a reverse‐phase column (COSMOSIL 5C18‐AR‐II, 3.5‐μm […], 4.6 × 150 mm).
(§4) Elimination rate constant (k e) was determined by the least squares regression analysis of plasma concentration vs time curve. Elimination half‐life (t 1/2) was calculated using Eq.1:(1) t1/2=ln2/ke
(§5) Area under plasma concentration‐time curve (AUC) and area under the first moment curve (AUMC) from time 0 to infinity were calculated by trapezoidal rule.
(§6) Absorption rate constant (k a) after oral administration was calculated by the nonlinear least squares fitting with program MULTI.12
(§7) BA was calculated by Eq.5:(7) BA=AUCoral/AUCiv×Doseiv/Doseoral×100 where AUCoral is AUC after oral administration. Doseiv and Doseoral are administered dose in the intravenous and oral administration study, respectively.
(§8) Hepatic availability (F h) was calculated by Eq.6:(8) Fh=F/Fa×Fg

[6] = cited from earlier work
BCRP [7] = conditions: calculated from k a in WT, Bcrp(−/−) and Mdr1a/1b(−/−) mice (Eq. 9)
[8] = Pharmacokinetics after iv and oral administration, P‐S difference method, Mdr1a/1b(−/−) mice; type: in vivo
Procedure: as §1, §2, §3, §4, §5, §6, §7, §8

[9] = Pharmacokinetics after iv and oral administration, P‐S difference method, Bcrp(−/−) mice; type: in vivo
Procedure: as §1, §2, §3, §4, §5, §6, §7, §8

[10] = male, FVB (wild-type), mouse, portal vein plasma, po
[11] = male, FVB (wild-type), mouse, systemic plasma (abdominal vein), po
[12] = wild‐type mice, p.o. (ciprofloxacin 1, nitrofurantoin 2, topotecan 1, sulfasalazine 5 mg/kg)
[13] = Mdr1a/1b(−/−) mice, p.o. (ciprofloxacin 1, nitrofurantoin 2, topotecan 1, sulfasalazine 5 mg/kg)
[14] = male, Mdr1a/1b(−/−) (FVB background), mouse, portal vein plasma, po, 1 mg/kg
[15] = male, Mdr1a/1b(−/−) (FVB background), mouse, systemic plasma (abdominal vein), po, 1 mg/kg
[16] = Bcrp(−/−) mice, p.o. (ciprofloxacin 1, nitrofurantoin 2, topotecan 1, sulfasalazine 5 mg/kg)
[17] = male, Bcrp(−/−) (FVB background), mouse, portal vein plasma, po, 1 mg/kg
[18] = male, Bcrp(−/−) (FVB background), mouse, systemic plasma (abdominal vein), po, 1 mg/kg

In the case of CC[C@@]1(O)C(=O)OCc2c1cc1n(c2=O)Cc2cc3c(CN(C)C)c(O)ccc3nc2-1 [topotecan, Topotecan HCl], the “human AQBCRP” value (BCRP [1]) is reported as 0.58, the “AQ P‐gp (in vivo)” value (P‐gp [2]; calculated from k a in WT, Bcrp(−/−) and Mdr1a/1b(−/−) mice (Eq. 10)) is reported as 0.08 and the “R P‐gp (rate of P‐gp contribution)” value (P‐gp [2]; in vivo (mice), calculated from F a F g in WT, Bcrp(−/−) and Mdr1a/1b(−/−) mice (Eq. 12)) is reported as 0.06. The “AQp‐gp in vitro (Caco‐2)” value (P‐gp [3]) was 0.14, the blood plasma ratio at 15 min, 1 µg/mL [4] was 0.94 ± 0.05 and the “k a, wt” value ([5]; Table 5 summary, WT mice, oral administration) was 3.18. For the same compound, the “(F a F g) wt” value ([5]; as fraction, WT mice, oral administration) was 0.57, the clearance ([5]; male, FVB (wild-type), mouse, plasma (systemic, abdominal vein), wild‐type mice, iv 1 mg/kg, read-out: CL tot (converted)) was 36.7 mL/min/kg and the Vd ([5]; male, FVB (wild-type), mouse, plasma (systemic, abdominal vein), wild‐type mice, iv 1 mg/kg, read-out: Vdss) was 2.59 L/kg. For the same compound, the half-life ([5]; male, FVB (wild-type), mouse, plasma, iv, wild‐type mice, iv 1 mg/kg) was 75.6 min, the AUC(0-inf) ([5]; male, FVB (wild-type), mouse, plasma, iv, wild‐type mice, iv 1 mg/kg, read-out: AUC 0→∞) was 0.994 µM·h and the Cmax [5, 10] was 720 nM. For the same compound, the Tmax [5, 10] was 4.8 min, the AUC(0-inf) ([5]; male, FVB (wild-type), mouse, portal vein plasma, po, wild‐type mice, p.o. (ciprofloxacin 1, nitrofurantoin 2, topotecan 1, sulfasalazine 5 mg/kg), portal vein (pv) plasma, read-out: AUC 0→∞ (AUCpv)) was 0.577 µM·h and the Cmax [5, 11] was 218 nM. It also gave a Tmax [5, 11] of 30 min, a half-life ([5]; male, FVB (wild-type), mouse, systemic plasma (abdominal vein), po, wild‐type mice, p.o. (ciprofloxacin 1, nitrofurantoin 2, topotecan 1, sulfasalazine 5 mg/kg), systemic (sys) plasma) of 62.4 min and an AUC(0-inf) ([5]; male, FVB (wild-type), mouse, systemic plasma (abdominal vein), po, wild‐type mice, p.o. (ciprofloxacin 1, nitrofurantoin 2, topotecan 1, sulfasalazine 5 mg/kg), systemic (sys) plasma, read-out: AUC 0→∞ (AUCsys)) of 0.37 µM·h. For the same compound, the F h [5, 12] was 65.6%, the k a [5, 12] was 3.18 h⁻¹ and the “F a F g” value ([5]; wild‐type mice, p.o. (ciprofloxacin 1, nitrofurantoin 2, topotecan 1, sulfasalazine 5 mg/kg), P‐S difference method) was 57% and 56.8%. The “BA after oral administration” value ([6]; human clinical studies) was “about 40%”, the “human BA” value ([6]; human) was 40% and the “oral BA, patients heterozygous variant for the BCRP SNP vs normal BCRP” value ([6]; human) was 1.3 fold. For the same compound, the “BA when GF120918 is orally coadministered” value ([6]; human, with GF120918 (BCRP inhibitor)) was 100%, the “AQ bcrp (in vivo)” value (BCRP [7]) was 0.35 and the F h [8, 13] was 54.8%. The k a [8, 13] was 3.68 h⁻¹, the BA ([8]; Mdr1a/1b(−/−) mice, p.o. (ciprofloxacin 1, nitrofurantoin 2, topotecan 1, sulfasalazine 5 mg/kg) vs iv 1 mg/kg) was 34.9% and the “F a F g” value ([8]; Mdr1a/1b(−/−) mice, p.o. (ciprofloxacin 1, nitrofurantoin 2, topotecan 1, sulfasalazine 5 mg/kg), P‐S difference method) was 63.8%. For the same compound, the “k a, P‐gp” value ([8]; Table 5 summary, Mdr1a/1b(−/−) mice, oral administration) was 3.68, the “(F a F g)P‐gp” value ([8]; as fraction, Mdr1a/1b(−/−) mice, oral administration) was 0.64 and the clearance ([8]; male, FVB Mdr1a/1b(−/−), mouse, plasma (systemic, abdominal vein), Mdr1a/1b(−/−) mice, iv 1 mg/kg, read-out: CL tot (converted)) was 35.5 mL/min/kg. The Vd ([8]; male, FVB Mdr1a/1b(−/−), mouse, plasma (systemic, abdominal vein), Mdr1a/1b(−/−) mice, iv 1 mg/kg, read-out: Vdss) was 2.19 L/kg, the AUC(0-inf) ([8]; male, FVB Mdr1a/1b(−/−), mouse, portal vein plasma, po, 1 mg/kg, read-out: AUC 0→∞ (AUCpv)) was 0.589 µM·h and the AUC(0-inf) ([8]; male, FVB Mdr1a/1b(−/−), mouse, systemic plasma (abdominal vein), po, 1 mg/kg, read-out: AUC 0→∞ (AUCsys)) was 0.358 µM·h. For the same compound, the half-life ([8]; male, Mdr1a/1b(−/−) (FVB background), mouse, plasma, Mdr1a/1b(−/−) mice, iv 1 mg/kg) was 64.8 min, the AUC(0-inf) ([8]; male, Mdr1a/1b(−/−) (FVB background), mouse, plasma, Mdr1a/1b(−/−) mice, iv 1 mg/kg, read-out: AUC 0→∞) was 1.02 µM·h and the Cmax [8, 14] was 664 nM. For the same compound, the Tmax [8, 14] was 4.8 min, the Cmax [8, 15] was 242 nM and the Tmax [8, 15] was 10.2 min. It also gave a half-life [8, 15] of 73.8 min, a F h [9, 16] of 74.0% and a k a [9, 16] of 5.18 h⁻¹. The BA ([9]; Bcrp(−/−) mice, p.o. (ciprofloxacin 1, nitrofurantoin 2, topotecan 1, sulfasalazine 5 mg/kg) vs iv 1 mg/kg) was 76.3%, the “F a F g” value ([9]; Bcrp(−/−) mice, p.o. (ciprofloxacin 1, nitrofurantoin 2, topotecan 1, sulfasalazine 5 mg/kg), P‐S difference method) was 103% and the “k a, bcrp” value ([9]; Table 5 summary, Bcrp(−/−) mice, oral administration) was 5.18. For the same compound, the “(F a F g)bcrp” value ([9]; as fraction, Bcrp(−/−) mice, oral administration) was 1.03, the half-life ([9]; male, Bcrp(−/−) (FVB background), mouse, plasma, iv, 1 mg/kg, Bcrp(−/−) mice, iv 1 mg/kg) was 89.4 min and the Cmax [9, 17] was 855 nM. It also gave a Tmax [9, 17] of 4.8 min, a Cmax [9, 18] of 476 nM and a Tmax [9, 18] of 10.2 min. It also gave an AUC(0-inf) ([9]; male, FVB Bcrp(−/−), mouse, plasma (systemic, abdominal vein), iv, 1 mg/kg, Bcrp(−/−) mice, iv 1 mg/kg, read-out: AUC 0→∞) of 1.49 µM·h, a clearance ([9]; male, FVB Bcrp(−/−), mouse, plasma (systemic, abdominal vein), Bcrp(−/−) mice, iv 1 mg/kg, read-out: CL tot (converted)) of 24.5 mL/min/kg and a Vd ([9]; male, FVB Bcrp(−/−), mouse, plasma (systemic, abdominal vein), Bcrp(−/−) mice, iv 1 mg/kg, read-out: Vdss) of 2.21 L/kg. It also gave an AUC(0-inf) ([9]; male, FVB Bcrp(−/−), mouse, portal vein plasma, po, 1 mg/kg, Bcrp(−/−) mice, p.o. (ciprofloxacin 1, nitrofurantoin 2, topotecan 1, sulfasalazine 5 mg/kg), portal vein (pv) plasma, read-out: AUC 0→∞ (AUCpv)) of 1.51 µM·h, an AUC(0-inf) ([9]; male, FVB Bcrp(−/−), mouse, portal vein plasma, po, Bcrp(−/−) mice, p.o. (ciprofloxacin 1, nitrofurantoin 2, topotecan 1, sulfasalazine 5 mg/kg), portal vein (pv) plasma, read-out: AUC 0→∞ (AUCpv)) of 1.51 µM·h and a half-life ([9]; male, FVB Bcrp(−/−), mouse, systemic plasma (abdominal vein), po, 1 mg/kg, Bcrp(−/−) mice, p.o. (ciprofloxacin 1, nitrofurantoin 2, topotecan 1, sulfasalazine 5 mg/kg), systemic (sys) plasma) of 88.2 min. For the same compound, the AUC(0-inf) ([9]; male, FVB Bcrp(−/−), mouse, systemic plasma (abdominal vein), po, 1 mg/kg, Bcrp(−/−) mice, p.o. (ciprofloxacin 1, nitrofurantoin 2, topotecan 1, sulfasalazine 5 mg/kg), systemic (sys) plasma, read-out: AUC 0→∞ (AUCsys)) was 1.14 µM·h, the AUC(0-inf) ([9]; male, FVB Bcrp(−/−), mouse, systemic plasma (abdominal vein), po, Bcrp(−/−) mice, p.o. (ciprofloxacin 1, nitrofurantoin 2, topotecan 1, sulfasalazine 5 mg/kg), systemic (sys) plasma, read-out: AUC 0→∞ (AUCsys)) was 1.14 µM·h and the “AUC pv and AUC sys after oral administration, Bcrp(−/−) mice vs WT mice” value ([9]; oral administration) was “approximately 3 fold”.
